How the values were obtained:
[1] = tested on: CCRF-CEM; experiment: MTS cytotoxicity assay, 72 h, CCRF-CEM; type: cell-based; conditions: Table 1; for IC50: Homo sapiens, CCRF-CEM, 72 h, MTS; for SI (selectivity index): IC50 of CCRF-CEM line vs average of both fibroblasts (BJ and MRC-5)
Procedure, shortened: (§1)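 Seed cells; next day add compound (50–0.0975 μmol/L, 2-fold steps); incubate 72 h, 37 °C, 5% CO2; add MTS/PMS, 1–4 h; read A490; fit IC50.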

[2] = tested on: U2OS; experiment: MTS cytotoxicity assay, 72 h, U2OS; type: cell-based; conditions: Homo sapiens
[3] = tested on: nine cancer and two normal fibroblast derived cell lines; experiment: MTS cytotoxicity assay, whole panel of 11 cell lines; type: cell-based; conditions: 72 h, statement for whole panel
Procedure: Based on the preliminary results and tests of a larger library of known triterpenoids, a small set of 2-substituted lupane and 18α-oleanane derivatives was designed and synthesized. As the first step, the cytotoxic activity of the synthesized derivatives was assessed using an MTS assay following 72 h of treatment (Table 1). Selected cell lines A549 (lung adenocarcinoma) and DU-145 (prostate cancer) are both dependent on Hh signaling. In addition, K562 (chronic myelogenous leukemia) was included as a cell line sensitive to Hh inhibitors[32] and a type of hematological malignancy with active Hh signaling.[33] MRC-5 lung fibroblasts and BJ human skin fibroblasts cell lines were used to evaluate the toxicity against nontumor cells. Compounds were also tested using the standard panel of other cancer cell lines, as described in our earlier work (Table 1).[27]
The human prostate tumor-derived cell line DU145 was obtained from ATCC (American Type Culture Collection) and cultured in RPMI 1640 (Roswell Park Memorial Institute) medium supplemented with 10% (v/v) fetal bovine serum (FBS). Human prostate tumor-derived LNCaP cells were obtained from ATCC and cultured in RPMI 1640 medium supplemented with 10% FBS. […] Finally, the absorbance at 490 nm was measured using an EnVision multifunctional modular reader (PerkinElmer). The IC50 value was determined using Dotmatics software.

[4] = tested on: MRC-5 lung fibroblasts; experiment: MTS cytotoxicity assay, 72 h, MRC-5 fibroblasts; type: cell-based, human; conditions: Homo sapiens, MRC5, 72 h, normal fibroblasts
Procedure, shortened: as §1

[5] = tested on: K562 (chronic myelogenous leukemia); experiment: MTS cytotoxicity assay, 72 h, K562; type: cell-based; conditions: Homo sapiens
Procedure, shortened: as §1

[6] = tested on: K562-TAX; experiment: MTS cytotoxicity assay, 72 h, K562-TAX; type: cell-based
[7] = tested on: HCT116 p53–/–; experiment: MTS cytotoxicity assay, 72 h, HCT116 p53–/–; type: cell-based; conditions: Homo sapiens, HCT-116, 72 h
Procedure, shortened: as §1

[8] = tested on: HCT 116; experiment: MTS cytotoxicity assay, 72 h, HCT 116; type: cell-based; conditions: Homo sapiens, HCT-116, 72 h
Procedure, shortened: as §1

[9] = tested on: A549 (lung adenocarcinoma); experiment: MTS cytotoxicity assay, 72 h, A549; type: cell-based; conditions: Homo sapiens, A549, 72 h
Procedure, shortened: as §1

[10] = tested on: BJ human skin fibroblasts; experiment: MTS cytotoxicity assay, 72 h, BJ fibroblasts; type: cell-based; conditions: Homo sapiens, Skin fibroblast, normal fibroblasts
Procedure, shortened: as §1

[11] = tested on: CEM-DNR; experiment: MTS cytotoxicity assay, 72 h, CEM-DNR; type: cell-based; conditions: Homo sapiens
[12] = tested on: DU-145 (prostate cancer); experiment: MTS cytotoxicity assay, 72 h, DU-145; type: cell-based, human; conditions: Homo sapiens, DU-145, 72 h
Procedure, shortened: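 MTS read-out (A490 after 1–4 h with MTS/PMS) following 72 h continuous compound treatment. Concentrations spanned 50–0.0975 μmol/L in twofold steps; IC50 values calculated from the curves.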

Row | Compound | IC50 [1] | SI (selectivity index) [1] | IC50 ([2]; Table 1) | IC50 ([4]; Table 1) | IC50 ([5]; Table 1) | IC50 ([6]; Table 1) | IC50 ([6]; full Table S1) | IC50 ([7]; Table 1) | IC50 ([8]; Table 1) | IC50 ([9]; Table 1) | IC50 ([10]; Table 1) | IC50 ([11]; Table 1) | IC50 ([12]; Table 1) | also measured
1 | CC1(C)C(=O)C(c2ccc3cn[nH]c3c2)=C[C@@]2(C)C1CC[C@]1(C)C2CCC2C3[C@H]4OC[C@@]3(CCC4(C)C)CC[C@]21C (stereo partly drawn) [Compound 4n, 2-(Indazol-6-yl)-19β,28-epoxyolean-1-en-3-one] | 18 µM | 2.1 | 25 µM | 33 µM | 23 µM | 16 µM | 16.8 µM | 31 µM | 31 µM | 30 µM | 42 µM | 24 µM | 24 µM | IC50 ([2]; full Table S1): 24.5 µM; Cytotoxic activity (IC50) on these 11 cell lines [3]: weak cytotoxicity; IC50 ([4]; full Table S1): 33.2 µM; IC50 ([5]; full Table S1): 22.5 µM; IC50 ([7]; full Table S1): 30.6 µM; IC50 ([8]; full Table S1): 30.6 µM; IC50 ([9]; full Table S1): 29.5 µM; IC50 ([10]; full Table S1): 42.2 µM; IC50 ([11]; full Table S1): 24.1 µM; IC50 ([12]; full Table S1): 23.9 µM
2 | C=C(C)[C@@H]1CC[C@]2(C(=O)O)CC[C@]3(C)[C@H](CC[C@@H]4[C@@]5(C)CC[C@H](O)C(C)(C)[C@@H]5CC[C@]43C)[C@@H]12 [Betulinic acid 5, betulinic acid, reference compound] | 8.1 µM | 3.2 | 21 µM | 28 µM | 4.3 µM | 14 µM | 14.1 µM | 16 µM | 16 µM | 9.4 µM | 24 µM | 14 µM | 9.6 µM | –

Source: PMC11923649, “Novel C-2 Aromatic Heterocycle-Substituted Triterpenoids Inhibit Hedgehog Signaling in GLI1 Overexpression Cancer Cells” (ACS Omega, 2025)
